Measurements: patent US9908897B2, “Spirocyclic derivatives” (CHRONOS THERAPEUTICS LIMITED, priority 2014, dated 2018)

Columns and labels:
[1] = biological target: human serotonin transporter (SERT) (Homo sapiens (Human), UniProt P31645); test: Scintillation Proximity Assay (SPA) competition binding, human SERT; conditions: recombinant hSERT-CHO membranes, [3H]citalopram
Excerpt: (§1) Measure of Affinity to the Human Transporters DAT, NET and SERT
(§2) Affinity is expressed in terms of inhibition constant (Ki) of the compounds of the invention for DAT, NET and SERT, and it is typically calculated from the IC50 values obtained in competition experiments using Cheng and Prusoff equation (Cheng and Prusoff, Biochem. Pharmacol. 22:3099, 1973). In the context of the present invention pKi values (corresponding to the antilogarithm of Ki) are used instead of Ki; pKi are only estimated to be accurate to about 0.3 log unit.
(§3) Scintillation Proximity Assay (SPA) for Human DAT, NET and SERT Binding
(§4) Chinese Hamster Ovary (CHO) cells stably expressing either human DAT (hDAT-CHO) or human NET (hNET-CHO) or human SERT (hSERT-CHO) are used for the membrane preparations for radioligand binding assays using Scintillation proximity Assay (SPA) technique. Each cell line is cultured independently in F-12K Nutrient Mixture containing 10% of Fetal Bovine Serum (FBS) supplemented with 450 μg/ml G-418. When cells are at 70-80% of confluence 3 mM Na Butyrate was added to the cell culture medium. After 24 h of incubation, the culture medium was removed and the cells detached with Versene (DAT) or by scraping (NET and SERT). Cell suspension is centrifuged at 41,000 g for 10 minutes at 4° C. The resultant pellets are re-suspended in 15 volumes of Ice-cold buffer (20 mM HEPES, 145 mM NaCl, 5 mM KCl, pH7.3), homogenized using an Ultra Turrax homogeniser and centrifuged as before. The resultant membrane pellets are re-suspended in up to 15 volume of ice-cold buffer, incubated for 20 minutes at 37-C and centrifuged as before at 41,000 g. The final membrane pellets are re-suspended into 5-10 volumes of ice-cold buffer, dispensed into 0.5 ml aliquots and stored at −80° C. until use. Protein concentration for each preparation is determined using Bio-Rad Protein Assay kit.
(§5) The affinity of the compounds of the invention to the human DAT or NET or SERT transporters is assessed by using the [^3H]WIN-35,428 or [^3H]nisoxetine or [^3H]citalopram binding assays in recombinant human DAT, NET and SERT membranes with the SPA technology. The final assay volume is 50 μL in 384 well plates.
(§6) Briefly, 0.5 μL of test compound in neat DMSO or 0.5 μL of DMSO for total binding (TB) or 0.5 μL of indatraline 1 mM (10 μM final concentration) for non specific binding (NSB) are added to the assay plate. 50 μL of the SPA mixture is added to each well, containing: 30 μg/mL or 10 μg/mL or 25 μg/mL DAT, NET, SERT membranes, respectively; 5 nM [^3H]WIN-35,428 or 5 nM [^3H]nisoxetine or 1 nM [^3H]citalopram, for DAT, NET, SERT assay, respectively; 2.5 mg/mL or 1 mg/mL or 4 mg/mL WGA-PVT SPA beads (PerkinElmer RPNQ0001, for DAT, NET, SERT assay, respectively. All components are added to Assay Buffer (20 mM HEPES pH 7.4, 145 mM NaCl, 5 mM KCl, 0.01% Pluronic F-127). 0.02% BSA was used for DAT binding only. Plates are sealed with Topseal A and centrifuged 1 min, 800 rpm. Plates are loaded into a 1450 Microbeta TriLux (Perkin-Elmer) plate reader and the radioactivity counted after at least 4 hrs or overnight incubation at room temperature. Curve fitting and IC50 estimations are performed using a four parameter model in XLfit (IDBS, Guilford, UK) for Microdoft Excel (Microsoft, Redmond, Wash.).

[2] = biological target: human norepinephrine transporter (NET) (Homo sapiens (Human), UniProt P23975); test: Scintillation Proximity Assay (SPA) competition binding, human NET; conditions: recombinant hNET-CHO membranes, [3H]nisoxetine
Excerpt: as §1, §2, §3, §4, §5, §6

[3] = biological target: human dopamine transporter (DAT) (Homo sapiens (Human), UniProt Q01959); test: Scintillation Proximity Assay (SPA) competition binding, human DAT; conditions: recombinant hDAT-CHO membranes, [3H]WIN-35,428
Excerpt: as §1
In the context of the present invention pKi values (corresponding to the antilogarithm of Ki) are used instead of Ki; pKi are only estimated to be accurate to about 0.3 log unit.
as §3, §4, §5, §6

Sequence of human norepinephrine transporter (NET) (P23975 whole entry): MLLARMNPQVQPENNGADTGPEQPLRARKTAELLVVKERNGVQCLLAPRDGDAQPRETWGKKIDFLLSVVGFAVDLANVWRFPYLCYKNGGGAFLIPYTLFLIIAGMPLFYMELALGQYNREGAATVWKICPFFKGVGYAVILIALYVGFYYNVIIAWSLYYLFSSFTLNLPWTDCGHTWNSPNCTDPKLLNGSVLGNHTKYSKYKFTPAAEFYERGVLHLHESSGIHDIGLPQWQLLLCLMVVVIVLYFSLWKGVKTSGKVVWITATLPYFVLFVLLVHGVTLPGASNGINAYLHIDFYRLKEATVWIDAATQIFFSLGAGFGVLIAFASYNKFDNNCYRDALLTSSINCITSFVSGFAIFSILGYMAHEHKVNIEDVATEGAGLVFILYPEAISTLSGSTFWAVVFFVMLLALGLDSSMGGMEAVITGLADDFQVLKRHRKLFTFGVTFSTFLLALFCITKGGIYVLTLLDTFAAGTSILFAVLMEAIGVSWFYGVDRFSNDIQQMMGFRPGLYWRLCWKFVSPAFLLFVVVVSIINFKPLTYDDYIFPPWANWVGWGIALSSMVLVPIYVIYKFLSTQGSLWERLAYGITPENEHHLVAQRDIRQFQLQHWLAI
Sequence of human serotonin transporter (SERT) (P31645 whole entry): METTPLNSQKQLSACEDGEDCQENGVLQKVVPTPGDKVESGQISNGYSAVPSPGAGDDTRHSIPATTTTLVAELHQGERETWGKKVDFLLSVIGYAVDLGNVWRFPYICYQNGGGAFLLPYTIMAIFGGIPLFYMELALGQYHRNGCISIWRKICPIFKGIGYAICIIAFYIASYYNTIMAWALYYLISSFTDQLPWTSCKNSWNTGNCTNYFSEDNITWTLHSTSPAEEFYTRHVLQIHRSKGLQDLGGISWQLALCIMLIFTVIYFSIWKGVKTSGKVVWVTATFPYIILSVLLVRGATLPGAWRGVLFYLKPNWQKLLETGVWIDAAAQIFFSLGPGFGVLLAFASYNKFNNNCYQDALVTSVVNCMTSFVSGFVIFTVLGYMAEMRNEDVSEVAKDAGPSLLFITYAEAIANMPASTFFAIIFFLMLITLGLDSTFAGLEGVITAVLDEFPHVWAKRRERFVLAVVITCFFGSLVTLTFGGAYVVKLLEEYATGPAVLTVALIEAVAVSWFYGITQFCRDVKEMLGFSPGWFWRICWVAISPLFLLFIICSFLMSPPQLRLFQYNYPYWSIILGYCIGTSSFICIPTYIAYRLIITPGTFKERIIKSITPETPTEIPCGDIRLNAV
Sequence of human dopamine transporter (DAT) (Q01959 whole entry): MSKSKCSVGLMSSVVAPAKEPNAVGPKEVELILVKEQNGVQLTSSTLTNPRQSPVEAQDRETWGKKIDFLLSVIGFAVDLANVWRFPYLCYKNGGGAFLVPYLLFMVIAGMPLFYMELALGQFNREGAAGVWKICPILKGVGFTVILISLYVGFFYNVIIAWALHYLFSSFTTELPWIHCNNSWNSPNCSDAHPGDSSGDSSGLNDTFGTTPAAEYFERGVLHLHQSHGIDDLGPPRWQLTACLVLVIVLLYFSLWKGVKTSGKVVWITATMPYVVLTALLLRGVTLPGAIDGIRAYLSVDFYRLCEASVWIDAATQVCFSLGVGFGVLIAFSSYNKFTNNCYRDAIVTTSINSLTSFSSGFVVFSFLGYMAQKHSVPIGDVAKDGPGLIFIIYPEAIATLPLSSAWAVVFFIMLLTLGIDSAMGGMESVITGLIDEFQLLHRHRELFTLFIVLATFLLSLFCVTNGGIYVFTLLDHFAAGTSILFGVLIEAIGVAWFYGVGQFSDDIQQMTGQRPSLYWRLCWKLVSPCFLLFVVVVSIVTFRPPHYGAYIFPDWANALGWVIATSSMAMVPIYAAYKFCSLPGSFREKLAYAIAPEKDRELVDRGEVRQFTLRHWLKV

| SMILES | pIC50 SERT [1] | pIC50 NET [2] | pIC50 DAT [3] | IC50 [1] [µM] |
| --- | --- | --- | --- | --- |
| Cc1cc(Oc2ccccc2C)nc(N2CCC3(CC2)CNCCO3)n1.Cl [Example 51, 9-[4-methyl-6-(2-methylphenoxy)pyrimidin-2-yl]-1-oxa-4,9-diazaspiro[5.5]undecane hydrochloride] | 5.21 | 5.78 | 7.33 | – |
| COc1ccccc1Oc1cc(C)nc(N2CCC3(CC2)CNCCO3)n1.Cl [Example 52, 9-[4-(2-methoxyphenoxy)-6-methylpyrimidin-2-yl]-1-oxa-4,9-diazaspiro[5.5]undecane hydrochloride] | – | 5.30 | 5.96 | > 100 |
| Cc1cc(Oc2cccnc2)nc(N2CCC3(CC2)CNCCO3)n1.Cl [Example 53, 9-[4-methyl-6-(pyridin-3-yloxy)pyrimidin-2-yl]-1-oxa-4,9-diazaspiro[5.5]undecane hydrochloride] | 4.56 | 5.21 | 6.63 | – |
| Cc1cnc(N2CCC3(CC2)CNCCO3)nc1Oc1cccc(F)c1.Cl [Example 54, 9-[4-(3-fluorophenoxy)-5-methylpyrimidin-2-yl]-1-oxa-4,9-diazaspiro[5.5]undecane hydrochloride] | 5.00 | 5.34 | 6.96 | – |
| Cl.Fc1cccc(Oc2cc(C(F)(F)F)nc(N3CCC4(CC3)CNCCO4)n2)c1 [Example 56, 9-[4-(3-fluorophenoxy)-6-(trifluoromethyl)pyrimidin-2-yl]-1-oxa-4,9-diazaspiro[5.5]undecane hydrochloride] | 5.77 | 6.37 | 8.42 | – |
| Cl.Fc1ccc(Oc2cc(C(F)(F)F)nc(N3CCC4(CC3)CNCCO4)n2)cc1 [Example 58, 9-[4-(4-fluorophenoxy)-6-(trifluoromethyl)pyrimidin-2-yl]-1-oxa-4,9-diazaspiro[5.5]undecane hydrochloride] | 7.31 | 5.52 | 7.53 | – |
| Cl.FC(F)(F)c1cc(Oc2cccs2)nc(N2CCC3(CC2)CNCCO3)n1 [Example 60, 9-[4-(thiophen-2-yloxy)-6-(trifluoromethyl)pyrimidin-2-yl]-1-oxa-4,9-diazaspiro[5.5]undecane hydrochloride] | 5.83 | 5.75 | 7.34 | – |
| COc1cc(Cc2ccccc2)nc(N2CCC3(CC2)CNCCO3)n1.Cl [Example 61, 9-(4-benzyl-6-methoxypyrimidin-2-yl)-1-oxa-4,9-diazaspiro[5.5]undecane hydrochloride] | 4.89 | 5.29 | 6.67 | – |
| CSc1cc(Oc2cccc(F)c2)nc(N2CCC3(CC2)CNCCO3)n1.Cl [Example 63, 9-[4-(3-fluorophenoxy)-6-(methylsulfanyl)pyrimidin-2-yl]-1-oxa-4,9-diazaspiro[5.5]undecane hydrochloride] | 5.15 | 6.34 | 8.07 | – |
| CSc1cc(N2CCC3(CC2)CNCCO3)nc(Oc2cccc(F)c2)n1.Cl [Example 64, 9-[2-(3-fluorophenoxy)-6-(methylsulfanyl)pyrimidin-4-yl]-1-oxa-4,9-diazaspiro[5.5]undecane hydrochloride] | 4.86 | 5.35 | 6.38 | – |
| Cl.Fc1cccc(Oc2cc(C(F)(F)F)nc(N3CCOC4(CCNCC4)C3)n2)c1 [Example 67, 4-[4-(3-fluorophenoxy)-6-(trifluoromethyl)pyrimidin-2-yl]-1-oxa-4,9-diazaspiro[5.5]undecane hydrochloride] | 5.32 | 6.02 | 7.80 | – |
| Cl.Fc1cccc(Oc2cc(F)c(F)cc2N2CCC3(CC2)CNCC(F)(F)O3)c1 [Example 69, 9-[4,5-difluoro-2-(3-fluorophenoxy)phenyl]-2,2-difluoro-1-oxa-4,9-diazaspiro[5.5]undecane hydrochloride] | – | 5.06 | 5.97 | > 100 |
| O=C1CNCC2(CCN(c3nc(Oc4cccc(F)c4)cc(C(F)(F)F)n3)CC2)N1 [Example 73, 9-[4-(3-fluorophenoxy)-6-(trifluoromethyl)pyrimidin-2-yl]-1,4,9-triazaspiro[5.5]undecan-2-one] | – | 4.82 | 6.32 | > 100 |
| CN1CCNCC12CCN(c1nc(Oc3cccc(F)c3)cc(C(F)(F)F)n1)CC2 [Example 74, 9-[4-(3-fluorophenoxy)-6-(trifluoromethyl)pyrimidin-2-yl]-1-methyl-1,4,9-triazaspiro[5.5]undecane] | 4.95 | 6.42 | 8.38 | – |
| Fc1cccc(Oc2cc(C(F)(F)F)nc(N3CCC4(CC3)CNCCN4)n2)c1 [Example 75, 9-[4-(3-fluorophenoxy)-6-(trifluoromethyl)pyrimidin-2-yl]-1,4,9-triazaspiro[5.5]undecane] | 5.18 | 6.54 | 8.88 | – |
| CN1CCCNC(=O)C12CCN(c1nc(Oc3cccc(F)c3)cc(C(F)(F)F)n1)CC2 [Example 76, 3-[4-(3-fluorophenoxy)-6-(trifluoromethyl)pyrimidin-2-yl]-7-methyl-3,7,11-triazaspiro[5.6]dodecan-12-one] | – | 4.88 | 7.28 | > 100 |
| CN1CCCNCC12CCN(c1nc(Oc3cccc(F)c3)cc(C(F)(F)F)n1)CC2 [Example 77, 3-[4-(3-fluorophenoxy)-6-(trifluoromethyl)pyrimidin-2-yl]-7-methyl-3,7,11-triazaspiro[5.6]dodecane] | 5.30 | 6.33 | 8.08 | – |
| Cl.Fc1cccc(Oc2cc(C(F)(F)F)nc(N3CCC4(CC3)COCCN4)n2)c1 [Example 78, 9-[4-(3-fluorophenoxy)-6-(trifluoromethyl)pyrimidin-2-yl]-4-oxa-1,9-diazaspiro[5.5]undecane hydrochloride] | 5.17 | 7.32 | 7.94 | – |
| Fc1cccc(Oc2cc(F)c(F)cc2N2CCCC3(CCNCC3)C2)c1 [Example 80, 2-[4,5-difluoro-2-(3-fluorophenoxy)phenyl]-2,9-diazaspiro[5.5]undecane] | 6.49 | 5.84 | 6.64 | – |
| Fc1cccc(Oc2cc(F)c(F)cc2N2CCCC3(CCCNC3)C2)c1 (stereo not drawn) [Example 81, 2-[4,5-difluoro-2-(3-fluorophenoxy)phenyl]-2,8-diazaspiro[5.5]undecane] | 6.71 | 6.25 | 7.18 | – |
| Fc1cccc(Oc2cc(F)c(F)cc2N2CCC3(CNCCC34OCCO4)C2)c1 (stereo not drawn) [Example 85, 8-[4,5-difluoro-2-(3-fluorophenoxy)phenyl]-1,4-dioxa-8,12-diazadispiro[4.0.4^6.4^5]tetradecane] | 6.35 | 5.81 | 6.62 | – |
| O=C1CCNCC12CCN(c1cc(F)c(F)cc1Oc1cccc(F)c1)C2 (stereo not drawn) [Example 86, 2-[4,5-difluoro-2-(3-fluorophenoxy)phenyl]-2,7-diazaspiro[4.5]decan-10-one] | 5.65 | 5.81 | 6.87 | – |
